Format in all cases: cell-based
In experiment [1] the test system is Mycolicibacterium smegmatis DSM 43465. The experiment can be described thus: Antimycobacterial microdilution broth MIC (resazurin), M. smegmatis. The settings on record: DSM43465, read-out: MIC M. smegmatis.
Experiment [2] concerns Mycobacterium tuberculosis H37Ra. The experiment can be described thus: Antimycobacterial microdilution broth MIC (resazurin), Mtb H37Ra. The settings on record: Mycobacterium tuberculosis, H37RA, read-out: MIC Mtb H37Ra.
The subject of experiment [3] is M. kansasii CNCTC My 235/80. The experiment can be described thus: Microplate Alamar Blue Assay MIC, M. kansasii.
Experiment [4] concerns M. avium ssp. avium CNCTC My 80/72. The experiment can be described thus: Microplate Alamar Blue Assay MIC, M. avium.
Experiment [5] deals with Mycobacterium tuberculosis H37Rv. The experiment can be described thus: Microplate Alamar Blue Assay MIC, Mtb H37Rv.
The subject of experiment [6] is Mycolicibacterium aurum DSM 43999. The experiment can be described thus: Antimycobacterial microdilution broth MIC (resazurin), M. aurum. Particulars: DSM43999, read-out: MIC M. aurum.

Values after ≈ are worked out from the molar mass of the structure shown. Read-outs that look alike come from different tables or passages of the source.

In the case of `NNC(=O)c1ccncc1` [INH, isoniazid, reference compound], the MIC is 7.81 to 15.6 µg/mL (≈ 56.9 to 114 µM) in experiment [1], 0.9 to 1.8 µM in experiment [2] (Calculated from MIC (μg/mL)), 0.125 to 0.25 µg/mL in experiment [2] and 3.91 to 7.81 µg/mL (≈ 28.5 to 56.9 µM) in experiment [6]. The “MIC M. kansasii” value in experiment [3] is 3.13 to 12.5 µg/mL. Further, the “MIC M. avium” value in experiment [4] was 6.25 to 12.5 µg/mL. For the same compound, in experiment [5], the “MIC Mtb H37Rv” value fell in the range of 0.1 to 0.2 µg/mL.

(Values after PMC11748363, “Antimicrobial and Antiproliferative Properties of 2‐Phenyl‐N‐(Pyridin‐2‐yl)acetamides” (Chemical Biology & Drug Design, 2025).)
